# Data as given in US8669292B2, “Therapeutic formulation” (Orion Therapeutics, LLC, priority 2005, dated 2014).
# Where two headings read alike, the source gives them in different places.
# What was measured:
# [1] = system: HCT-116 human colon cancer cells; assay: IC50 assay (concentration-cell number study); format: cell-based
# Method: Concentration-cell number studies (IC50 assay) were carried out utilizing 12 separate compositions (numbered 1-12 below) against 13 different cancer cell lines (see Table 6). […] On day 3, cells are exposed to different concentrations of the drug. Flasks are incubated for 120 h (5 d) in a 5% CO2 incubator at 37° C. and the cells harvested with trypsin, washed once with Hanks Balanced Salt Solution (HBSS) and re-suspended in HBSS containing 0.08% Trypan Blue. Both viable and dead cells are counted using a hemocytometer. Viable cell numbers are normalized to an untreated control and plotted as a function of drug concentration. The IC50 value is determined using Prism 4.0.
# [2] = ORAC total (Brunswick Test # A103); format: biochemical; details: for TOTAL ORAC SCORE: Cantron oral liquid scores converted from TE/L to TE/g
# Method: (§1) Peroxyl radical scores are measured in the ORAC test (Oxygen Radical Absorption Capacity). Hydroxyl Radicals are tested in the HORAC test (Hydroxyl Radical Absorption Capacity). Peroxynitrite Radicals are tested in the NORAC test (Peroxynitrite Radical Absorption Capacity). Superoxide Radicals are measured in the SOD test (Superoxide Radical Absorption Capacity). The ORAC test measures the antioxidant activity against peroxyl radicals by determining how many peroxyl free radicals can be absorbed by a given antioxidant as compared to the vitamin E analog-Trolox. The result is expressed as micromoles of Trolox equivalent per liter (TE/L) for liquid formulations and Trolox equivalent per gram (TE/g) for dry powders. Brunswick tested the Applicant's compounds for antioxidant activity against both hydrophilic and lipophilic peroxyl radicals as expressed in the ORAC total (see table 7).
# [3] = ORAC hydro (Brunswick Test # A101); format: biochemical; details: for ORAC hydro SCORE: Cantron oral liquid scores converted from TE/L to TE/g
# Method: as §1
# [4] = ORAC lipo (Brunswick Test # A102); format: biochemical; details: for ORAC lipo SCORE: Cantron oral liquid scores converted from TE/L to TE/g
# Method: as §1
# [5] = HORAC (Brunswick Test # A104); format: biochemical; details: for HORAC SCORE: Cantron oral liquid scores converted from CAE/L to CAE/g
# Method: Peroxyl radical scores are measured in the ORAC test (Oxygen Radical Absorption Capacity). Hydroxyl Radicals are tested in the HORAC test (Hydroxyl Radical Absorption Capacity). Peroxynitrite Radicals are tested in the NORAC test (Peroxynitrite Radical Absorption Capacity). Superoxide Radicals are measured in the SOD test (Superoxide Radical Absorption Capacity). […] The result is expressed as micromoles of caffeic acid equivalent per liter (CAE/L) for liquid formulations and caffeic acid equivalent per gram (CAE/g) for dry powders.
# [6] = NORAC (Brunswick Test # A105); format: biochemical; details: for NORAC SCORE: Cantron oral liquid scores converted from TE/L to TE/g
# Method: Peroxyl radical scores are measured in the ORAC test (Oxygen Radical Absorption Capacity). Hydroxyl Radicals are tested in the HORAC test (Hydroxyl Radical Absorption Capacity). Peroxynitrite Radicals are tested in the NORAC test (Peroxynitrite Radical Absorption Capacity). Superoxide Radicals are measured in the SOD test (Superoxide Radical Absorption Capacity). Applicant's compounds and compositions were tested by the NORAC test (Brunswick test # A 105), which measures the activity of a given antioxidant against peroxynitrite radicals. NORAC tests were based on the method of Chung H. et al (2001) Journal Agricultural of Food Chemistry, 49: 3614-3621. Scores are expressed in micromoles of trolox equivalent per liter (TE/L) for liquid formulations and Trolox equivalent per gram (TE/g) for dry powders.
# [7] = SORAC (Brunswick Test # A106); format: biochemical; details: for SOD SCORE: Cantron oral liquid scores converted from unitsSODeq/L to unitsSODeq/g
# Method: Peroxyl radical scores are measured in the ORAC test (Oxygen Radical Absorption Capacity). Hydroxyl Radicals are tested in the HORAC test (Hydroxyl Radical Absorption Capacity). Peroxynitrite Radicals are tested in the NORAC test (Peroxynitrite Radical Absorption Capacity). Superoxide Radicals are measured in the SOD test (Superoxide Radical Absorption Capacity). Applicant's compounds and compositions were tested by the SORAC test (Brunswick test #106), which measures the activity of a given antioxidant against Superoxide radicals. The tests were conducted based on the method of Zhao et al (1999) Journal of Agricultural and Food Chemistry, (1999), 47: 2537-2543. The calibration standard was SOD and was expressed as a unit SOD equivalent per liter (unitsSODeq/L) for liquid formulations and unit SOD equivalent per gram (unitsSODeq/g) for dry powders.
# H125 Lung Cancer = assay: IC50 assay (concentration-cell number study); format: cell-based
# Method: (§2) These cells are grown in 5 ml culture medium (RPMI-1640+15% Bovine Calf serum containing 1% penicillin-streptomycin, and 1% Glutamine) at 37° C. and 5% CO2 at a starting concentration of 5×10^4 cells/T25 flask. On day 3, cells are exposed to different concentrations of the drug. Flasks are incubated for 120 h (5 d) in a 5% CO2 incubator at 37° C. and the cells harvested with trypsin, washed once with Hanks Balanced Salt Solution (HBSS) and re-suspended in HBSS containing 0.08% Trypan Blue. Both viable and dead cells are counted using a hemocytometer. Viable cell numbers are normalized to an untreated control and plotted as a function of drug concentration. The IC50 value is determined using Prism 4.0.
# (§3) Cell Lines utilized in IC50 Assays: HCT-116 human colon cancer cells, H125 Lung Cancer, MCF-7, Breast Cancer, MDA-235 Breast Cancer, LNCaP Prostate Cancer, OVAR-5 Ovarian Cancer, U251N Brain Cancer Sarcoma 180, Panc 01Pancreatic Cancer, CCRF-CEM Leukemia, HEP-G2 Liver Cancer, L1210 Leukemia, Colon 38 Colon Cancer.
# MCF-7 Breast Cancer = assay: IC50 assay (concentration-cell number study); format: cell-based
# Method: (§4) Concentration-cell number studies (IC50 assay) were carried out utilizing 12 separate compositions (numbered 1-12 below) against 13 different cancer cell lines (see Table 6). These cells are grown in 5 ml culture medium (RPMI-1640+15% Bovine Calf serum containing 1% penicillin-streptomycin, and 1% Glutamine) at 37° C. and 5% CO2 at a starting concentration of 5×10^4 cells/T25 flask. On day 3, cells are exposed to different concentrations of the drug. Flasks are incubated for 120 h (5 d) in a 5% CO2 incubator at 37° C. and the cells harvested with trypsin, washed once with Hanks Balanced Salt Solution (HBSS) and re-suspended in HBSS containing 0.08% Trypan Blue. Both viable and dead cells are counted using a hemocytometer. Viable cell numbers are normalized to an untreated control and plotted as a function of drug concentration. The IC50 value is determined using Prism 4.0.
# MDA-235 Breast Cancer = assay: IC50 assay (concentration-cell number study); format: cell-based
# Method: as §4
# LNCaP Prostate Cancer = assay: IC50 assay (concentration-cell number study); format: cell-based
# Method: as §4
# OVAR-5 Ovarian Cancer = assay: IC50 assay (concentration-cell number study); format: cell-based
# Method: as §4
# U251N Brain Cancer = assay: IC50 assay (concentration-cell number study); format: cell-based
# Method: as §4
# Sarcoma 180 = assay: IC50 assay (concentration-cell number study); format: cell-based
# Method: as §4
# [8] = system: Panc 01 Pancreatic Cancer; assay: IC50 assay (concentration-cell number study); format: cell-based
# Method: as §4
# CCRF-CEM Leukemia = assay: IC50 assay (concentration-cell number study); format: cell-based
# Method: as §4
# HEP-G2 Liver Cancer = assay: IC50 assay (concentration-cell number study); format: cell-based
# Method: as §4
# L1210 Leukemia = assay: IC50 assay (concentration-cell number study); format: cell-based
# Method: as §4
# Colon 38 Colon Cancer = assay: IC50 assay (concentration-cell number study); format: cell-based
# Method: as §2, §3
# [9] = system: 13 different cancer cell lines; assay: IC50 assays, average or range over all cell lines; format: cell-based
# Method: as §2, §3
# [10] = system: HCT-116 human colon cancer cells; assay: Clonogenic dose response; format: cell-based; details: for clonogenic survival / effect on clonogenic survival: 24 h exposure; for clonogenic survival: 10 micrograms/ml; for effect on clonogenic survival: concentrations up to 1 microgram/ml; for effect on the survival of the tumor cells: concentration of up to 10 micrograms/ml, exposure time not given; for concentration with cell survival at the 0.1 level: extended exposure 168 h
# Method: Clonogenic survival of the cells was measured by a standard tissue culture procedure.
# Asimicin was prepared in ethanol. Clonogenic survival of the cells was measured by a standard tissue culture procedure.
# [11] = in vivo; cited from earlier work
# [12] = Homo sapiens, HCT-116, 120 h, HCT-116, 120 h exposure, read-out: IC50
# [13] = Homo sapiens, 120 h exposure, read-out: IC50
# [14] = Mus musculus, 120 h exposure, read-out: IC50
compound,measurement,setting,value
"COc1cccc2c1C(=O)c1c(O)c3c(c(O)c1C2=O)C[C@@](O)(C(=O)CO)C[C@@H]3O[C@H]1C[C@H](N)[C@H](O)[C@H](C)O1 [Adriamycin, reference compound]",IC50,[1]; [12],0.03 µg/mL
"CC(=O)O[C@H]1C(=O)[C@@]2(C)[C@H]([C@H](OC(=O)c3ccccc3)[C@]3(O)C[C@H](OC(=O)[C@H](O)[C@@H](NC(=O)c4ccccc4)c4ccccc4)C(C)=C1C3(C)C)[C@]1(OC(C)=O)CO[C@@H]1C[C@@H]2O [Taxol, reference compound]",IC50,[1]; [12],0.0002 µg/mL
"Oc1ccccc1O [Composition 2, Catechol]",TOTAL ORAC SCORE,[2],"73,161 micromoles TE/g"
same,more effective than Cantron NM,[2]; Peroxyl-total score ratio,The Catechol composition is 1702%
same,ORAC hydro SCORE,[3],"48,479 micromoles TE/g"
same,more effective than the improved Cantron ASV,[3]; Peroxyl-hydro score ratio,is still 507% more effective than
same,ORAC lipo SCORE,[4],"24,682 micromoles TE/g"
same,more effective than the improved Cantron ASV,[4]; Peroxyl-lipo score ratio,is still 4086.4% more effective
same,HORAC SCORE,[5],"5,572 micromoles CAE/g"
same,more effective than Cantron NM,[5]; Hydroxyl score ratio,"2,079% more effective than"
same,NORAC SCORE,[6],"2,593 micromoles TE/g"
same,more effective than the improved Cantron ASV,[6]; Peroxynitrite score ratio,is still 409.63% more effective
same,SOD SCORE,[7],"159,000 unitsSODeq/g"
same,more effective than the improved Cantron ASV,[7]; Superoxide score ratio,is still 441.66% more effective
same,IC50 times lower than Cantron (times more efficacious than Cantron),[1]; HCT-116,7.04 times lower than
same,calculated cytotoxicity value of catechol,"[1]; HCT-116, Cantron score 19.7 multiplied by 12.7% catechol by weight",2.5019 µg/mL
same,IC50,[1]; [12],2.8 µg/mL
same,IC50,"[1]; Homo sapiens, HCT-116, read-out: calculated cytotoxicity value of catechol, HCT-116, Cantron score 19.7 multiplied by 12.7% catechol by weight",2.5 µg/mL
same,IC50 times lower than Cantron (times more efficacious than Cantron),H125 Lung Cancer,14.29 times lower than
same,IC50,"H125 Lung Cancer; Homo sapiens, NCI-H125, 120 h exposure, read-out: IC50",2.1 µg/mL
same,IC50 times lower than Cantron (times more efficacious than Cantron),MCF-7 Breast Cancer,11.36 times lower than
same,IC50,MCF-7 Breast Cancer; 120 h exposure,to 2.2 μg/ml). It is
same,IC50,"MCF-7 Breast Cancer; Homo sapiens, MCF7, 120 h exposure, read-out: IC50",2.2 µg/mL
same,IC50 times lower than Cantron (times more efficacious than Cantron),MDA-235 Breast Cancer,9.33 times lower than
same,IC50,"MDA-235 Breast Cancer; 120 h exposure, read-out: IC50",3 µg/mL
same,IC50 times lower than Cantron (times more efficacious than Cantron),LNCaP Prostate Cancer,18.82 times lower than
same,IC50,LNCaP Prostate Cancer; [13],1.7 µg/mL
same,IC50 times lower than Cantron (times more efficacious than Cantron),OVAR-5 Ovarian Cancer,3.69 times lower than
same,IC50,"OVAR-5 Ovarian Cancer; 120 h exposure, read-out: IC50",3.2 µg/mL
same,IC50 times lower than Cantron (times more efficacious than Cantron),U251N Brain Cancer,10.45 times lower than
same,IC50,"U251N Brain Cancer; 120 h exposure, read-out: IC50",2.2 µg/mL
same,IC50 times lower than Cantron (times more efficacious than Cantron),Sarcoma 180,12.11 times lower than
same,IC50,Sarcoma 180; [14],1.9 µg/mL
same,IC50 times lower than Cantron (times more efficacious than Cantron),[8],14.71 times lower than
same,IC50,"[8]; 120 h exposure, read-out: IC50",1.7 µg/mL
same,IC50 times lower than Cantron (times more efficacious than Cantron),CCRF-CEM Leukemia,6.19 times lower than
same,IC50,CCRF-CEM Leukemia; [13],2.1 µg/mL
same,IC50 times lower than Cantron (times more efficacious than Cantron),HEP-G2 Liver Cancer,4.61 times lower than
same,IC50,"HEP-G2 Liver Cancer; Homo sapiens, HepG2, 120 h exposure, read-out: IC50",2.6 µg/mL
same,IC50 times lower than Cantron (times more efficacious than Cantron),L1210 Leukemia,10.52 times lower than
same,IC50,L1210 Leukemia; [14],1.9 µg/mL
same,IC50 times lower than Cantron (times more efficacious than Cantron),Colon 38 Colon Cancer,11.36 times lower than
same,IC50,"Colon 38 Colon Cancer; 120 h exposure, read-out: IC50",2.2 µg/mL
same,IC50,[9]; average of 13 cell lines,2.3 µg/mL
same,times more efficacious than Cantron,[9]; average over the cell lines tested,10.35 times
same,clonogenic survival,[10],0.1
same,effect on clonogenic survival,[10],no effect
same,effect on the survival of the tumor cells,[10],no effect
same,concentration with cell survival at the 0.1 level,[10],200 picograms/ml
same,known side effects in animal tests,[11],stomach irritation and hyperplasia
"O=C(O)CCCCC1CCSS1 (stereo not drawn) [Alpha-lipoic acid, reference compound]",IC50,[1]; [12],> 100 µg/mL
Vitamin E [reference compound],IC50,"[1]; HCT-116, 120 h exposure",>100 µg/mL
Asimicin,clonogenic survival,[10],0.1
same,effect on clonogenic survival,[10],no effect
same,fold greater cell killing than found with the 24 h exposure,[10]; 168 h versus 24 h exposure,~100.000 fold
same,effect on the survival of the tumor cells,[10],no effect
same,concentration with cell survival at the 0.1 level,[10],200 picograms/ml
O=c1c(O)c(O)c(=O)c1=O [Croconic Acid],TOTAL ORAC SCORE,[2],"1,106 micromoles TE/g"
same,ORAC hydro SCORE,[3],"1,106 micromoles TE/g"
same,ORAC lipo SCORE,[4],0 micromoles TE/g
same,HORAC SCORE,[5],19 micromoles CAE/g
same,NORAC SCORE,[6],1 micromoles TE/g
same,SOD SCORE,[7],0 unitsSODeq/g
